Reference: patent US11174268B2, “Benzenesulfonamide compouds and their use as therapeutic agents” (Xenon Pharmaceuticals Inc., priority 2016, dated 2021)
pIC50: −log10 of the molar value. Where a name gives a salt, the structure may show the parent alone. Read-outs that look alike come from different tables or passages of the source.

Assays:
NaV1.6 [1] = biological target: T1, NaV1.6 (Homo sapiens (Human), UniProt Q9UQD0); assay: Sodium Influx Assay (Flux), NaV1.6; assay type: cell-based; details: Trex HEK293 cells, ANG2 dye, inactivated state;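 note: Tetracycline-induced cells, compounds applied for one hour at room temperature with modulators holding channels open, IC50 from percent inhibition of sodium influx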
T1 sequence (Q9UQD0 whole entry): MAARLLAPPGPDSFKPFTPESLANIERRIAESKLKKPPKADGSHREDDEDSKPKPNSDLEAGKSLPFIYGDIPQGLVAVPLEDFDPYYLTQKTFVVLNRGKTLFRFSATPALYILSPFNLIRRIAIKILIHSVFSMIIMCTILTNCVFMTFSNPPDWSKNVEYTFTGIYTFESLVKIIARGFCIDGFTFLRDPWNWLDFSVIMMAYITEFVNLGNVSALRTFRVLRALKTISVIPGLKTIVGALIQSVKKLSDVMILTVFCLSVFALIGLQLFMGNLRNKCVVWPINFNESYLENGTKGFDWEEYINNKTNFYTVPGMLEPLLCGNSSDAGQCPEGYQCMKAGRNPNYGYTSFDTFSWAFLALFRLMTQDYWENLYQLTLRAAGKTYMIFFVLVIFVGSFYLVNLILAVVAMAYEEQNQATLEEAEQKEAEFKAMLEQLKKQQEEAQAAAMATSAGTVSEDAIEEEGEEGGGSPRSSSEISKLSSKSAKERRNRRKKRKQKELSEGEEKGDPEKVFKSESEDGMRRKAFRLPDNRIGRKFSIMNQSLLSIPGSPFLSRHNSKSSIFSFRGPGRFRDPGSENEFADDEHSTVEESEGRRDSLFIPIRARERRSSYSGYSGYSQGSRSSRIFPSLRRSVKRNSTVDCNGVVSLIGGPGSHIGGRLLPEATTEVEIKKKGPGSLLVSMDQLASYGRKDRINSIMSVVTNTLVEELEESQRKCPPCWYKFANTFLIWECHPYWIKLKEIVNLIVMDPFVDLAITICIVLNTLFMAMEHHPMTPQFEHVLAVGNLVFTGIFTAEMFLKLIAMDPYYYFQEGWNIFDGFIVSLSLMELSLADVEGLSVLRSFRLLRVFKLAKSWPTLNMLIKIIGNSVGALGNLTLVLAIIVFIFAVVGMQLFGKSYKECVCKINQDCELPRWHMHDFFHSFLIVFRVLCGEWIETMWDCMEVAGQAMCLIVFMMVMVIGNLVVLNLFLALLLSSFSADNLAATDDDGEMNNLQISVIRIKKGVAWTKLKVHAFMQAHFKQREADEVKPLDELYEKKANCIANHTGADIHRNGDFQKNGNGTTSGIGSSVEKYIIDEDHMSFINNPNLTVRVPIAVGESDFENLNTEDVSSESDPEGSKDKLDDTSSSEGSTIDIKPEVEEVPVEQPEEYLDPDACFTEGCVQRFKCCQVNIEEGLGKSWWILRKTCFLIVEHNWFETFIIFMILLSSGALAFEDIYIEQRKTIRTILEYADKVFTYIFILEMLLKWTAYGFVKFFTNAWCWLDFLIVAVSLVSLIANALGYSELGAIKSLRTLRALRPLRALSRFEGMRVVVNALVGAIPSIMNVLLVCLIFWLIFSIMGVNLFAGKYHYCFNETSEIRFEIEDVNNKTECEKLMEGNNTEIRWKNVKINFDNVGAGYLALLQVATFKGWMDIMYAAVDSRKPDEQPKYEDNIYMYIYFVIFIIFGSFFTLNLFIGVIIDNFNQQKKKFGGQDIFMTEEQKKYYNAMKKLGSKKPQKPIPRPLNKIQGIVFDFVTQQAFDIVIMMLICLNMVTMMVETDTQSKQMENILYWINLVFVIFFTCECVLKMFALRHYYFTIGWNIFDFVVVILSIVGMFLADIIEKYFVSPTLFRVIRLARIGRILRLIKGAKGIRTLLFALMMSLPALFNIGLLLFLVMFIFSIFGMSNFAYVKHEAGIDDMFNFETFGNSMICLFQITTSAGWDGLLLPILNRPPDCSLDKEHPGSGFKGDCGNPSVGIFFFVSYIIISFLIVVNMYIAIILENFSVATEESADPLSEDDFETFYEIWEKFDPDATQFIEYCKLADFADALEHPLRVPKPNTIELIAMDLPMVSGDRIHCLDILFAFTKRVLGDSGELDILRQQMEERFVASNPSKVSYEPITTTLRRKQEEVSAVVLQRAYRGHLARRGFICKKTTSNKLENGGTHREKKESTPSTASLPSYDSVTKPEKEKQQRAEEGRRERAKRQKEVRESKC

NaV1.6 [2] = biological target: T1, NaV1.6; assay: Electrophysiological Assay (EP), patch voltage clamp, NaV1.6; assay type: cell-based; details: HEK-293 cells, whole-cell patch clamp;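 note: sodium current recorded at ambient temperature, channels held inactivated then briefly repolarized to −150 mV for 20 ms before a test pulse, control currents in 0.5% DMSO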
NaV1.1 [3] = biological target: T2, NaV1.1 (Homo sapiens (Human), UniProt P35498); assay: Sodium Influx Assay (Flux), NaV1.1; assay type: cell-based; details: Trex HEK293 cells, ANG2 dye, inactivated state;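 note: channels co-expressed with human β1 subunit and held open by modulators, cells exposed to compounds for one hour at room temperature, IC50 from percent inhibition of influx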
NaV1.1 [4] = biological target: T2, NaV1.1; assay: Electrophysiological Assay (EP), patch voltage clamp, NaV1.1; assay type: cell-based; details: HEK-293 cells, whole-cell patch clamp;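 note: sodium current block measured at ambient temperature, holding at fully inactivating potential, 20 ms repolarization to −150 mV before test pulse, versus 0.5% DMSO control currents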
NaV1.5 = NaV1.5 (Homo sapiens (Human), UniProt Q14524); assay: Sodium Influx Assay (Flux), NaV1.5
Sequence of NaV1.5 (Q14524 other isoform, or with tags, fused parts or gaps): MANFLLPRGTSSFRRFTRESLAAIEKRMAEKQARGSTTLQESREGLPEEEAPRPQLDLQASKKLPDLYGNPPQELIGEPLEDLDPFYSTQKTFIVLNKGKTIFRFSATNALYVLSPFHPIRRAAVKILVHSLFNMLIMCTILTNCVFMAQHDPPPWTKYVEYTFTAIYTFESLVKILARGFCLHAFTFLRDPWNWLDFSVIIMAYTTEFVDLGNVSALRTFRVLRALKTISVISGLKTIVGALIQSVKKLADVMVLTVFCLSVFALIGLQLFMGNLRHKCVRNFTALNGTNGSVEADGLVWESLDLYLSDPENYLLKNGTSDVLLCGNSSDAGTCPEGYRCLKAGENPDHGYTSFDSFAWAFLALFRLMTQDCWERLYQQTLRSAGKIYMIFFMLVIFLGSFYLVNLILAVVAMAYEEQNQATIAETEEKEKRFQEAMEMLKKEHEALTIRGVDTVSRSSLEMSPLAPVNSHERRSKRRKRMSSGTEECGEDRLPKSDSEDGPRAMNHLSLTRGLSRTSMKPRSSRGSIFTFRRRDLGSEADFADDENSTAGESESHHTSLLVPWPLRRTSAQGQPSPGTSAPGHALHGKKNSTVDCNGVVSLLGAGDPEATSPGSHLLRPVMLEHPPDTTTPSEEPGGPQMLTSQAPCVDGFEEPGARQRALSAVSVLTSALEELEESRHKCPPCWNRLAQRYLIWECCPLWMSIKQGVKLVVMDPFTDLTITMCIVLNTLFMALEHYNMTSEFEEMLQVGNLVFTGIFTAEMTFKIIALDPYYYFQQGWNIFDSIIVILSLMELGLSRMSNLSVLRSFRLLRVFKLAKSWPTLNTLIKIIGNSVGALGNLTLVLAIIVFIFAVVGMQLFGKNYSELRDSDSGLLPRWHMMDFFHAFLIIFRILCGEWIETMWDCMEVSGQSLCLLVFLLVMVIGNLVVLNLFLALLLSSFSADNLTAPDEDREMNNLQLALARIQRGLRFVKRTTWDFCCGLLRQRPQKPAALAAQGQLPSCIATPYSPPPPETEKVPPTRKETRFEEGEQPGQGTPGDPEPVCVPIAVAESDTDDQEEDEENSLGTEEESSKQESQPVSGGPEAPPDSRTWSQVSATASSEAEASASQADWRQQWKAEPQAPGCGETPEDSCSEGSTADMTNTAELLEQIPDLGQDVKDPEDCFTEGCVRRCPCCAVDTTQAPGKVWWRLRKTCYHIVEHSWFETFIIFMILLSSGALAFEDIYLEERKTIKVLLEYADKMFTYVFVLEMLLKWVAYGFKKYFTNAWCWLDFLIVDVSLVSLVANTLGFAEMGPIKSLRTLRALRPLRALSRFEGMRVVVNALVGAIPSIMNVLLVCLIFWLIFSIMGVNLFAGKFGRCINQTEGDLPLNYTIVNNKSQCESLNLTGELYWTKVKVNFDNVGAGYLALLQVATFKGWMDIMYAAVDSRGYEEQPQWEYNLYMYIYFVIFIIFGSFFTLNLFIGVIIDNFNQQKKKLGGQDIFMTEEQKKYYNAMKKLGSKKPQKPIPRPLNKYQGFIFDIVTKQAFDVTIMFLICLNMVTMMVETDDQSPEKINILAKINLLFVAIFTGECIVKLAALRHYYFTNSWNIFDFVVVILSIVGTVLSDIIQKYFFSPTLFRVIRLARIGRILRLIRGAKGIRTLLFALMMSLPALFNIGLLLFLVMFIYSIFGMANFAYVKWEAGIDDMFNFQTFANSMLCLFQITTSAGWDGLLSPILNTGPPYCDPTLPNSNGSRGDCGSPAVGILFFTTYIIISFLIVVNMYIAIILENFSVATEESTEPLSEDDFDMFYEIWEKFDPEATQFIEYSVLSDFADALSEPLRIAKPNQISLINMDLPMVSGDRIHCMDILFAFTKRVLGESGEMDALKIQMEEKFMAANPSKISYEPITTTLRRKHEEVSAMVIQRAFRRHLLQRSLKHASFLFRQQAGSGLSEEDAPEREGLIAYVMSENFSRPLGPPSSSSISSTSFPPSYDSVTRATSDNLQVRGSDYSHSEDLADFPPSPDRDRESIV

[5] = read-out: Flux NaV1.5 IC50, Trex HEK293 cells, ANG2 dye, inactivated state

Structure (SMILES)	pIC50 (NaV1.6 [1])	pIC50 (NaV1.6 [2])	pIC50 (NaV1.1 [3])	pIC50 (NaV1.1 [4])	pIC50 (NaV1.5; [5])	pIC50 (NaV1.5)
C[C@H](Oc1cc(F)c(S(=O)(=O)Nc2cscn2)cc1Cl)c1ccccc1Cl [Example 123, (S)-5-chloro-4-(1-(2-chlorophenyl)ethoxy)-2-fluoro-N-(thiazol-4-yl)benzenesulfonamide]	5.93	6.15	5.24	5.00	5.67	–
O=S(=O)(Nc1cscn1)c1ccc(NCc2c(F)cccc2CN2CC(F)C2)c(Cl)c1F [Example 133, 3-chloro-2-fluoro-4-((2-fluoro-6-((3-fluoroazetidin-1-yl)methyl)benzyl)amino)-N-(thiazol-4-yl)benzenesulfonamide]	6.38	6.91	5.20	5.00	5.04	–
Cc1cc(S(=O)(=O)Nc2cscn2)c(F)cc1NCc1c(F)cccc1CN1CC(F)C1 [Example 137, 2-fluoro-4-((2-fluoro-6-((3-fluoroazetidin-1-yl)methyl)benzyl)amino)-5-methyl-N-(thiazol-4-yl)benzenesulfonamide]	6.23	6.45	4.52	5.00	4.52	–
O=S(=O)(Nc1cccc(F)n1)c1cc(Cl)c(NCc2c(F)cccc2CN2CCC2)cc1F [Example 138, 4-((2-(azetidin-1-ylmethyl)-6-fluorobenzyl)amino)-5-chloro-2-fluoro-N-(6-fluoropyridin-2-yl)benzenesulfonamide]	6.82	7.37	5.24	5.00	5.01	–
CCC(Nc1cc(F)c(S(=O)(=O)Nc2nccs2)cc1Cl)c1ccccc1 (centres unmarked) [Example 141, 5-chloro-2-fluoro-4-(1-phenylpropylamino)-N-(thiazol-2-yl)benzenesulfonamide]	6.32	7.51	5.48	6.56	–	4.68
O=S(=O)(Nc1cscn1)c1c(F)cc(NCc2c(F)cccc2CN2CC3(CCO3)C2)cc1F [Example 156, 4-((2-((1-oxa-6-azaspiro[3.3]heptan-6-yl)methyl)-6-fluorobenzyl)amino)-2,6-difluoro-N-(thiazol-4-yl)benzenesulfonamide formate]	6.84	7.66	4.61	5.00	4.52	–
C[C@H](Nc1ccc(S(=O)(=O)Nc2ccncn2)c(F)c1Cl)c1ccccc1Cl [Example 191, (S)-3-chloro-4-((1-(2-chlorophenyl)ethyl)amino)-2-fluoro-N-(pyrimidin-4-yl)benzenesulfonamide]	6.61	6.95	4.74	5.00	4.70	–
O=S(=O)(Nc1cscn1)c1ccc(NCc2c(F)cccc2CN2CCC2)c(Cl)c1F [Example 192, 4-((2-(azetidin-1-ylmethyl)-6-fluorobenzyl)amino)-3-chloro-2-fluoro-N-(thiazol-4-yl)benzenesulfonamide formate]	7.14	7.82	4.79	5.00	5.07	–
O=S(=O)(Nc1cscn1)c1c(F)cc(NCc2c(F)cccc2CN2CC(F)C2)cc1F [Example 194, 2,6-difluoro-4-((2-fluoro-6-((3-fluoroazetidin-1-yl)methyl)benzyl)amino)-N-(thiazol-4-yl)benzenesulfonamide formate]	6.64	7.37	5.07	5.00	4.52	–
C[C@H](Nc1cc(F)c(S(=O)(=O)Nc2ccncn2)c(F)c1)c1cc(Cl)ccc1F [Example 206, (S)-4-((1-(5-chloro-2-fluorophenyl)ethyl)amino)-2,6-difluoro-N-(pyrimidin-4-yl)benzenesulfonamide 2,2,2-trifluoroacetate]	6.35	7.12	5.15	5.00	4.52	–
COc1cccc(CN2CCC2)c1CNc1cc(F)c(S(=O)(=O)Nc2cscn2)c(F)c1 [Example 209, 4-((2-(azetidin-1-ylmethyl)-6-methoxybenzyl)amino)-2,6-difluoro-N-(thiazol-4-yl)benzenesulfonamide 2,2,2-trifluoroacetate]	6.50	7.12	4.56	5.00	4.52	–
O=S(=O)(Nc1cscn1)c1cc(Cl)c(NC2(c3cc(F)ccc3F)CC2)cc1F [Example 225, 5-chloro-4-((1-(2,5-difluorophenyl)cyclopropyl)amino)-2-fluoro-N-(thiazol-4-yl)benzenesulfonamide]	5.70	6.13	5.01	5.00	5.35	–
C[C@H](Nc1cc(F)c(S(=O)(=O)Nc2cnccn2)cc1Cl)c1cc(Cl)ccc1F [Example 243]	5.06	5.20	≤ 4.52	5.00	–	≤ 4.52
O=S(=O)(Nc1cscn1)c1cc(Cl)c(NCc2c(F)cccc2CN2CC(F)C2)cc1F [Example 247, 5-chloro-2-fluoro-4-((2-fluoro-6-((3-fluoroazetidin-1-yl)methyl)benzyl)amino)-N-(thiazol-4-yl)benzenesulfonamide]	5.21	6.39	4.60	5.00	4.52	–
C[C@H](Nc1cc(F)c(S(=O)(=O)Nc2ncc(F)s2)cc1Cl)c1ccccc1F [Example 266, (S)-5-chloro-2-fluoro-4-((1-(2-fluorophenyl)ethyl)amino)-N-(5-fluorothiazol-2-yl)benzenesulfonamide]	6.93	7.82	6.12	6.88	5.26	–
C[C@H](Nc1cc(F)c(S(=O)(=O)Nc2nccs2)cc1Cl)c1cc(F)ccc1F [Example 268, (S)-5-chloro-4-((1-(2,5-difluorophenyl)ethyl)amino)-2-fluoro-N-(thiazol-2-yl)benzenesulfonamide]	7.46	8.00	6.41	6.48	5.43	–

Now from value to molecule, other results behind:

pIC50 (NaV1.6 [1])	pIC50 (NaV1.6 [2])	pIC50 (NaV1.1 [3])	pIC50 (NaV1.1 [4])	Structure (SMILES)	pIC50 (NaV1.5; [5])	pIC50 (NaV1.5)
6.49	6.60	5.37	5.00	O=S(=O)(Nc1cscn1)c1c(F)cc(NCc2c(Cl)cccc2CN2CC(F)C2)cc1F [Example 129, 4-((2-chloro-6-((3-fluoroazetidin-1-yl)methyl)benzyl)amino)-2,6-difluoro-N-(thiazol-4-yl)benzenesulfonamide]	4.52	–
6.51	7.00	4.93	5.00	Cc1c(NCc2c(F)cccc2CN2CC(F)C2)ccc(S(=O)(=O)Nc2cscn2)c1F [Example 130, 2-fluoro-4-((2-fluoro-6-((3-fluoroazetidin-1-yl)methyl)benzyl)amino)-3-methyl-N-(thiazol-4-yl)benzenesulfonamide]	4.75	–
6.42	6.90	5.08	5.00	O=S(=O)(Nc1cccc(F)n1)c1cc(Cl)c(NCc2c(F)ccc(F)c2CN2CCC2)cc1F [Example 131, 4-((2-(azetidin-1-ylmethyl)-3,6-difluorobenzyl)amino)-5-chloro-2-fluoro-N-(6-fluoropyridin-2-yl)benzenesulfonamide]	4.96	–
6.42	7.39	4.71	5.00	O=S(=O)(Nc1nccs1)c1cc(Cl)c(OCc2ccccc2CN2CCC2)cc1F [Example 136, 4-((2-(azetidin-1-ylmethyl)benzyl)oxy)-5-chloro-2-fluoro-N-(thiazol-2-yl)benzenesulfonamide]	4.63	–
6.28	7.57	5.60	6.80	CC(C)CC(Nc1cc(F)c(S(=O)(=O)Nc2nccs2)cc1Cl)c1ccccc1 (centres unmarked) [Example 143, 5-chloro-2-fluoro-4-(3-methyl-1-phenylbutylamino)-N-(thiazol-2-yl)benzenesulfonamide]	–	5.15
6.38	6.92	5.36	5.09	C[C@H](Nc1cc(F)c(S(=O)(=O)Nc2cscn2)c(F)c1)c1cc(Cl)ccc1F [Example 207, (S)-4-((1-(5-chloro-2-fluorophenyl)ethyl)amino)-2,6-difluoro-N-(thiazol-4-yl)benzenesulfonamide 2,2,2-trifluoroacetate]	5.02	–
6.71	7.74	6.10	7.30	CC[C@H](Nc1cc(F)c(S(=O)(=O)Nc2ncc(F)s2)cc1Cl)c1ccccc1 [Example 265, (S)-5-chloro-2-fluoro-N-(5-fluorothiazol-2-yl)-4-((1-phenylpropyl)amino)benzenesulfonamide]	4.90	–
6.67	7.74	4.90	5.00	O=S(=O)(Nc1ccncn1)c1cc(Cl)c(N[C@H](c2cc(Cl)ccc2F)C(F)(F)F)cc1F [Example 270, (R)-5-chloro-4-((1-(5-chloro-2-fluorophenyl)-2,2,2-trifluoroethyl)amino)-2-fluoro-N-(pyrimidin-4-yl)benzenesulfonamide]	4.96	–
6.05	6.91	4.52	5.00	C[C@H](Nc1ccc(S(=O)(=O)Nc2ccncn2)cc1C(F)(F)F)c1cc(F)ccc1F [Example 273, (S)-4-((1-(2,5-difluorophenyl)ethyl)amino)-N-(pyrimidin-4-yl)-3-(trifluoromethyl)benzenesulfonamide]	4.52	–
